Test [1] has as its system IL-1β production in PMA-differentiated THP-1 cells. Kind of test: Measurement of IL-1β production in PMA-differentiated THP-1 cells (ELISA, 4 hours). As to conditions: Homo sapiens, THP-1, human IL-1β production, assayed using one or more of the described procedures, read-out: NLRP3 hIL1B IC50. It counts as cell-based, human. The method, then:
Measurement of IL-1β Production in PMA-Differentiated THP-1 Cells THP-1 cells were purchased from the American Type Culture Collection and sub-cultured according to instructions from the supplier. Prior to experiments, cells were cultured in RPMI 1640 containing 10% heat inactivated FBS, penicillin (100 units/ml) and streptomycin (100 μg/ml), and maintained in log phase prior to experimental setup. Prior to the experiment THP-1 were treated with PMA (Phorbol 12-myristate 13-acetate) (10 μg/ml) for 24 hours. The day of the experiment the media was removed and attaching cells were treated with trypsin for 2 minutes, cells were then collected, washed with PBS (phosphate buffer saline), spin down, resuspended in 2% heat inactivated FBS with RPMI at a concentration of 1×10^6 cells/ml, and 100 μl was plated in a 96 well plate. Compounds were dissolved in dimethyl sulfoxide (DMSO) and added to the culture medium to achieve desired concentration (e.g. 100, 30, 10, 3, 1, 0.3 or 0.1 μM). Cells were incubated with compounds for 4 hours. Cell free supernatant was collected and the production of IL-1β was evaluated by ELISA. A vehicle only control was run concurrently with each experiment. Final DMSO concentration was 1%.

Another test deals with T1, human TLR7 (Homo sapiens, UniProt Q9NYK1).
T1 construct: host or cells: human HEK-Blue cells (HEK293-derived) co-expressing TLR7 and an NF-kB/AP1-inducible SEAP reporter
T1 sequence (Q9NYK1 27-1049): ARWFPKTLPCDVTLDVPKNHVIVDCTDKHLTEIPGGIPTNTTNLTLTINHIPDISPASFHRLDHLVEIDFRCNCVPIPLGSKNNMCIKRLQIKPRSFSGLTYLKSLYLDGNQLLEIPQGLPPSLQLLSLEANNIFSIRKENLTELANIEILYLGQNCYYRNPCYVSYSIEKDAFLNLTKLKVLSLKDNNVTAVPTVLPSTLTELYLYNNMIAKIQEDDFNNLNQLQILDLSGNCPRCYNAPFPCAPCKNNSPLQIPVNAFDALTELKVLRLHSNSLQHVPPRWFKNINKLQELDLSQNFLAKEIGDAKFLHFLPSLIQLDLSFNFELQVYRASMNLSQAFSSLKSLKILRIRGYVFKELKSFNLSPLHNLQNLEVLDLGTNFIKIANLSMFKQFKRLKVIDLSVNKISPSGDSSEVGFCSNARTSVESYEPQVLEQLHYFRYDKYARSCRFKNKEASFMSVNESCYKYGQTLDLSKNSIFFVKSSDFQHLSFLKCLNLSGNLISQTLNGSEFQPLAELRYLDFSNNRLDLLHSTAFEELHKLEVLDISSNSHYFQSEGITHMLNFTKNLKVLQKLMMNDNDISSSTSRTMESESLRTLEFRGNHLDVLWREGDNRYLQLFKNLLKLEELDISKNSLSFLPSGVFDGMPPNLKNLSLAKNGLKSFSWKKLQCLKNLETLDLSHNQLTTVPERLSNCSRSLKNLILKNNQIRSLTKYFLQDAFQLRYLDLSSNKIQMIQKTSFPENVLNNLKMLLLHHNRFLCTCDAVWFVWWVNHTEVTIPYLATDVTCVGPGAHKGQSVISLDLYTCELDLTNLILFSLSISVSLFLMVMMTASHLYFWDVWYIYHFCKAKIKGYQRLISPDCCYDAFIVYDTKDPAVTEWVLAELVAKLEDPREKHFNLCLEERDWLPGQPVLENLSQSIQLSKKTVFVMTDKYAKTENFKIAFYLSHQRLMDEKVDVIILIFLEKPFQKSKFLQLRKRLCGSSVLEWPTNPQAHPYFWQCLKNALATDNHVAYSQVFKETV
Kind of test: In vitro human TLR7 binding reporter assay (HEK-Blue, NF-kB/AP1-inducible SEAP). It counts as cell-based. The conditions noted are these: HEK-Blue human TLR7 SEAP reporter cells; activity range classes; read-out: TLR7 Agonist EC50. On the procedure: (§1) In Vitro Human TLR7 and TLR8 Binding Reporter Assays
(§2) Logarithmically-growing human HEK-Blue cells co-expressing a TLR7 or TLR8 gene and a NF-kB/AP1-inducible SEAP (secreted embryonic alkaline phosphatase; Invivogen, San Diego, CA) reporter gene are added to individual wells of a 384-well plate (15,000 cells per 20 μL per well) and maintained for 24 h at 37° C., 5% CO2. Test compounds or DMSO are distributed to separate wells the next day using acoustic liquid handling technology (100 nL per well) and cells are subsequently incubated for 18 h at 37° C., 5% CO2. Cellular SEAP production is measured using an Envision plate reader instrument thirty minutes after adding freshly-made Quanti-Blue reagent (prepared by following manufacturer instructions; Invivogen, San Diego, CA) to the HEK-Blue TLR Nf-kB-SEAP cell reactions. All EC50 values (half-maximal effective concentration) are determined using proprietary data analysis software. Normalized EC50 value=absolute value determined by setting 100% Ymax using a reference standard RLU (relative light unit) values from cells treated with 50 μM of the reference standard.

Another test has as its target T2, human TLR8 (Homo sapiens, UniProt Q9NR97).
T2 construct: host or cells: human HEK-Blue cells (HEK293-derived) co-expressing TLR8 and an NF-kB/AP1-inducible SEAP reporter
T2 sequence (Q9NR97 27-1041): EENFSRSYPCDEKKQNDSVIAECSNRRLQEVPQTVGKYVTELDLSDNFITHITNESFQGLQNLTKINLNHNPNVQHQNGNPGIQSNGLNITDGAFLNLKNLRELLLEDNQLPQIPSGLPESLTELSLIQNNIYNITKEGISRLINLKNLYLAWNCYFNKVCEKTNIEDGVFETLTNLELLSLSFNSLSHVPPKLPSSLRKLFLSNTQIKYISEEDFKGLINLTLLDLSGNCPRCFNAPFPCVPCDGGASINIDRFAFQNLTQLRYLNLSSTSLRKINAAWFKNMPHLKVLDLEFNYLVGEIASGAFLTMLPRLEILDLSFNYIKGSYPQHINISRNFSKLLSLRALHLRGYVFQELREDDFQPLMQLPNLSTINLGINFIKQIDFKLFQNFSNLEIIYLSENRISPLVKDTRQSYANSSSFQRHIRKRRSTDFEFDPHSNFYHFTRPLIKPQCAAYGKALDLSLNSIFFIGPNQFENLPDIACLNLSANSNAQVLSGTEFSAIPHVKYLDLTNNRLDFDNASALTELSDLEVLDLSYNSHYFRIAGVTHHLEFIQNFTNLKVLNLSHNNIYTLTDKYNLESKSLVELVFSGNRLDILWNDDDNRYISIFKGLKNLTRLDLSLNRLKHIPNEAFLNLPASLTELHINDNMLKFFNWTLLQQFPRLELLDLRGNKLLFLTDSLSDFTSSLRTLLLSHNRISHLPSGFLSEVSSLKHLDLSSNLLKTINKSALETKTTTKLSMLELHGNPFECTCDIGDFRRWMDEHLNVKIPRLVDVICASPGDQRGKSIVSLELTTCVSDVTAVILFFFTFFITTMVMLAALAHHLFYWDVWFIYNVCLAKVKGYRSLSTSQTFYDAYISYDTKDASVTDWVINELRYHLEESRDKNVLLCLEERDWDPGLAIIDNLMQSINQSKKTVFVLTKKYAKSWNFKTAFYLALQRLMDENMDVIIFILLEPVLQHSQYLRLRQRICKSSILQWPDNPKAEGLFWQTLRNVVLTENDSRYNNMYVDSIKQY
Kind of test: In vitro human TLR8 binding reporter assay (HEK-Blue, NF-kB/AP1-inducible SEAP). The test is classed as cell-based. The conditions noted are these: HEK-Blue human TLR8 SEAP reporter cells; activity range classes; read-out: TLR8 Agonist EC50. The method, then: as §1, §2

Consider `CNC(=O)CCNc1cc(N)nc2cc(-c3ccn[nH]3)ccc12` [Compound 139], for which, in test [1], the IC50 turned out to be 2.01 µM. Further, the EC50 at human TLR7 and on human TLR8 was > 100 µM in each case.
With `CS(=O)(=O)CCNc1cc(N)nc2cc(-c3ccn[nH]3)ccc12` [Compound 140], in test [1], the half-inhibitory concentration (IC50) was determined as 1.41 µM. Moreover, the EC50 at human TLR7 and on human TLR8 was > 100 µM throughout.
As to `Nc1cc(N2CC[C@H](O)C2)c2ccc(-c3ccn[nH]3)cc2n1` [Compound 142], in test [1], the IC50 was 1.43 µM. Besides, the 50% effective concentration (EC50) on human TLR7 and at human TLR8 was > 100 µM each time.
In the case of `Nc1cc(N2CC[C@@H](O)C2)c2ccc(-c3ccn[nH]3)cc2n1` [Compound 143], the IC50 in test [1] stood at 5.81 µM. Besides, the EC50 on human TLR7 and on human TLR8 was > 100 µM in each case.
As for `Nc1cc(NCCCCO)c2ccc(-c3ccn[nH]3)cc2n1` [Compound 144], the IC50 in test [1] came out at 0.48 µM. Further, the EC50 at human TLR7 and on human TLR8 was > 100 µM throughout.
Turning to `Nc1cc(N2CCC(O)CC2)c2ccc(-c3ccn[nH]3)cc2n1` [Compound 145], the IC50 in test [1] amounted to 2.55 µM. Further, the EC50 at human TLR7 and on human TLR8 was > 100 µM throughout.
As to `Nc1cc(NCCNC(=O)c2ccccc2)c2ccc(-c3ccn[nH]3)cc2n1` [Compound 146], in test [1], the IC50 stood at 4.07 µM. Besides, the EC50 on human TLR7 and at human TLR8 was > 100 µM each time.
As for `Nc1cc(NCC2(O)CC2)c2ccc(-c3ccn[nH]3)cc2n1` [Compound 147], in test [1], the concentration for half-maximal inhibition (IC50) is 0.99 µM. Also, the EC50 at human TLR7 and at human TLR8 was > 100 µM in each case.
For `Nc1cc(NCc2ccncc2)c2ccc(-c3ccn[nH]3)cc2n1` [Compound 148], in test [1], the IC50 was determined as 1.64 µM. Besides, the EC50 at human TLR7 and at human TLR8 was > 100 µM in each case.
Turning to `Nc1cc(NCc2cccnn2)c2ccc(-c3ccn[nH]3)cc2n1` [Compound 149], the IC50 in test [1] amounted to 0.14 µM. In addition, the EC50 at human TLR7 and on human TLR8 was > 100 µM in each case.
With `Nc1cc(NCc2cccnc2)c2ccc(-c3ccn[nH]3)cc2n1` [Compound 150], the IC50 in test [1] turned out to be 0.22 µM. Besides, the EC50 on human TLR7 and at human TLR8 was > 100 µM each time.
Take `Nc1cc(NCCc2ccccn2)c2ccc(-c3ccn[nH]3)cc2n1` [Compound 151]: the IC50 in test [1] turned out to be 0.31 µM. In addition, the EC50 on human TLR7 and on human TLR8 was > 100 µM in each case.
Consider `Nc1cc(NCCn2ccnc2)c2ccc(-c3ccn[nH]3)cc2n1` [Compound 152], for which the IC50 in test [1] amounted to 1.03 µM. Besides, the EC50 at human TLR7 and on human TLR8 was > 100 µM in each case.
Turning to `Nc1cc(NC[C@H](O)CO)c2ccc(-c3ccn[nH]3)cc2n1` [Compound 153], in test [1], the IC50 was 1.11 µM. Further, the EC50 at human TLR7 and on human TLR8 was > 100 µM in each case.
Consider `Nc1cc(NCC(O)c2cccnc2)c2ccc(-c3ccn[nH]3)cc2n1` (stereo not drawn) [Compound 154], for which, in test [1], the IC50 stood at 0.44 µM. Moreover, the EC50 on human TLR7 and on human TLR8 was > 100 µM in each case.
Turning to `Nc1cc(NCC(O)c2ccccn2)c2ccc(-c3ccn[nH]3)cc2n1` (stereo not drawn) [Compound 155], the IC50 in test [1] was found to be 0.42 µM. Moreover, the EC50 at human TLR7 and on human TLR8 was > 100 µM each time.
Take `Cc1nc(CNc2cc(N)nc3cc(-c4ccn[nH]4)ccc23)cs1` [Compound 156]: the IC50 in test [1] was determined as 0.2 µM. The EC50 at human TLR7 and at human TLR8 was > 100 µM throughout.
With `CC(=O)N[C@H]1CCN(c2cc(N)nc3cc(-c4ccn[nH]4)ccc23)C1` [Compound 158], the IC50 in test [1] was found to be 35.8 µM. Also, the EC50 at human TLR7 and on human TLR8 was > 100 µM in each case.
For the molecule `Nc1cc(NCc2cnc[nH]2)c2ccc(-c3ccn[nH]3)cc2n1` [Compound 159], in test [1], the IC50 was determined as 0.52 µM. Moreover, the concentration giving a half-maximal response (EC50) on human TLR7 and on human TLR8 was > 100 µM in each case.
For `Nc1cc(N[C@H]2CCCC[C@@H]2O)c2ccc(-c3ccn[nH]3)cc2n1` [Compound 160], the IC50 in test [1] turned out to be 2.76 µM. The EC50 on human TLR7 and at human TLR8 was > 100 µM throughout.
As for `Nc1cc(NCC(F)(F)c2ccccn2)c2ccc(-c3ccn[nH]3)cc2n1` [Compound 161], the IC50 in test [1] came to 0.15 µM. Further, the EC50 at human TLR7 and at human TLR8 was > 100 µM each time.
For the molecule `Nc1cc(N[C@@H]2CCCC[C@H]2O)c2ccc(-c3ccn[nH]3)cc2n1` [Compound 162], the IC50 in test [1] was 2.49 µM. Besides, the EC50 on human TLR7 and at human TLR8 was > 100 µM in each case.
For `Nc1cc(NCCn2cncn2)c2ccc(-c3ccn[nH]3)cc2n1` [Compound 163], in test [1], the IC50 came out at 0.16 µM. For the same molecule, the concentration for a half-maximal effect (EC50) on human TLR7 and on human TLR8 was > 100 µM throughout.
Take `Nc1cc(N2CCc3ncccc3C2)c2ccc(-c3ccn[nH]3)cc2n1` [Compound 164]: in test [1], the IC50 stood at 1.91 µM. Besides, the half-maximal effective concentration (EC50) at human TLR7 and on human TLR8 was > 100 µM each time.
For the molecule `C[C@@H](CO)Nc1cc(N)nc2cc(-c3ccn[nH]3)ccc12` [Compound 165], in test [1], the IC50 turned out to be 0.47 µM. The EC50 at human TLR7 and at human TLR8 was > 100 µM in each case.

These data come from patent US12171756B2, “NLRP3 modulators” (Innate Tumor Immunity, Inc., priority 2017, dated 2024).
